From patent US4719224A, “Anti-inflammatory and analgesig thiophene acetic acid derivatives, compositions, and method of use therefor” (Roussel Uclaf, priority 1985, dated 1988) come the findings set out here.

For one experiment, the target named is T1, cyclo-oxygenase (Bos taurus, UniProt O62664).
T1 construct: a cyclo-oxygenase contained in a microsomal preparation of seminal vesicules of bulls; from tissue; host or cells: bull seminal vesicles, microsomal preparation
T1 sequence (O62664 25-600): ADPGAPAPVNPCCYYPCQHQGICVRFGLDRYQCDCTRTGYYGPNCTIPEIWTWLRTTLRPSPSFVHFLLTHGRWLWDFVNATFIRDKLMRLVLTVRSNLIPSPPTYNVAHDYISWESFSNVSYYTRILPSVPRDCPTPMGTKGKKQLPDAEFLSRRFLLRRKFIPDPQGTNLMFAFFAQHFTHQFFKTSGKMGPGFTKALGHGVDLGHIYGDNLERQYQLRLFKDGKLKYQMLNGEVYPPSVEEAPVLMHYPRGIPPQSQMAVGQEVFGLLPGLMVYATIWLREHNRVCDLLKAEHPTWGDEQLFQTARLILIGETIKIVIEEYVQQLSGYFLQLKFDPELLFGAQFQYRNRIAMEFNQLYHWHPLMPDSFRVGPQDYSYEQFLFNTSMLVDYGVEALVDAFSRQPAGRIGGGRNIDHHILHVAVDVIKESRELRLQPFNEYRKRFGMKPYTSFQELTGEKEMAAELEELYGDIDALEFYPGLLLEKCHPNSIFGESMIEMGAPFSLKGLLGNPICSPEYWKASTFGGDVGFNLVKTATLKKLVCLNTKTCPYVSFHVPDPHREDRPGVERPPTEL
Put plainly: Inhibition of biosynthesis of prostaglandins in vitro (microsomal preparation of seminal vesicules). It counts as biochemical, bulls. The procedure:
B. Inhibition of biosynthesis of prostaglandins in vitro
Arachidonic acid is converted into prostaglandins (PGs) of the […] by a cyclo-oxygenase contained in a microsomal preparation of seminal vesicules of bulls by the method of Tagekuchi et al [Biochemistry, Vol. 10 (1971), P. 2372]. The precursor at a concentration of 15×10^-6 M was incubated in the presence of a fixed concentration of proteins of the seminal vesicule preparation and the test product at 37° C. for 30 minutes. The reaction was stopped by immersion into boiling water for one minute and then centrifugation. The prostaglandins were determined by radio-immunoassay by the procedure of Dray et al [European J. Clin. Invest., Vol. 5 (1975), p. 311] to specifically evaluate for PGE2 and PGF2 α. The CI50 dose or dose that inhibited the activity by 50% was calculated for each of the two prostaglandins and was 2×10^-5 M for the compound of Example 1.

Experiment [1] concerns adjuvant arthritis (rear paw volume increase). Kind of experiment: Anti-inflammatory activity, adjuvant arthritis (preventive treatment). It counts as in vivo. Conditions: Rattus norvegicus; male rats, oral, day 0 to day 17, Freund type adjuvant; read-out: DA50 (dose that diminished by 50% the volume increase of the rear paws). The procedure:
A. Anti-inflammatory Activity-adjuvant arthritis (preventive treatment)
The injection of Freund type adjuvant into the rear paw of a rat provokes the rapid appearance of a primary inflammatory lesion in that paw and then after a latent period of 13 to 15 days, the appearance of a secondary arthritic condition occurs in the other rear paw The test was performed on male rats about 40 to 50 days old who received an intraplantary injection of 0.1 ml of Freund type adjuvant (suspension of 6 mg per ml of dead mycobacterium butyrium in vaseline oil). The rats received the test compound orally on day 0 (day of injection of adjuvant) until the day before they were killed (day 17). […] The activity of the test compounds was determined by the increase in the injected rear paw volume (primary and secondary inflammation) and the non-injected rear paw (secondary inflammation) as compared to the average volume of the corresponding paws of the arthritic control animals. The DA50 or the dose that diminished by 50% the volume increase of the rear paws of the treated animals as compared to the control animals was determined to be 8 mg/kg for the compound of Example 1.

A further experiment addresses T2, 5-lipoxygenase (Rattus norvegicus, UniProt P12527).
T2 construct: Dosage of 5-lipoxygenase of rat neutrophiles; endogenous in cells; host or cells: rat peritoneal neutrophils elicited with sodium caseinate
T2 sequence (P12527 1-673): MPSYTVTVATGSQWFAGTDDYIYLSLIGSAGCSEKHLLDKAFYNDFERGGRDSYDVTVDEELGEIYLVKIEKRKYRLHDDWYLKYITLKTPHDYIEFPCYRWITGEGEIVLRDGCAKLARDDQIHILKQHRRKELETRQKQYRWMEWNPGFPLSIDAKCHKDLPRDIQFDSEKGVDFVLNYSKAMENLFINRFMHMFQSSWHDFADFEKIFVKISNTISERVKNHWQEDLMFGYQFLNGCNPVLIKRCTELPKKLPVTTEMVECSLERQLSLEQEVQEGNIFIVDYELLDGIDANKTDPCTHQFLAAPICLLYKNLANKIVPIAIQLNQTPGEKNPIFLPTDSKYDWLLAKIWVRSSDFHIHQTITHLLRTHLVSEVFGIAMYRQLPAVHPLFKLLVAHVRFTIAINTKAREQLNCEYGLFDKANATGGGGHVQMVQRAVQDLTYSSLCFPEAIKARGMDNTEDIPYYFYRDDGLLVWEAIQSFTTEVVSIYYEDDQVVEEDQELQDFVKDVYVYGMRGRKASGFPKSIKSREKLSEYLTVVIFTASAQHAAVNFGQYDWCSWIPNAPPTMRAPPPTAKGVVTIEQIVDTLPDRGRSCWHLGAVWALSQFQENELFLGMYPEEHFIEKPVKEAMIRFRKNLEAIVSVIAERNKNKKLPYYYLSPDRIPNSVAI
Put plainly: Dosage of 5-lipoxygenase of rat neutrophiles (Leucotriene B4 by radioimmunoassay). Conditions: rat peritoneal neutrophiles, 10 μM ionophore A 23187, Leucotriene B4; read-out: CI50 5-lipoxygenase. Type of experiment: cell-based. The procedure: 3. Dosage of 5-lipoxygenase of rat neutrophiles
Peritoneal neutrophile (5×10^6 cells/ml) obtained after intraperitoneal injection of 12% sodium caseinate were preincubated at 37° C. for 5 minutes in the presence of the test product or solvent used. The incubation was effected under the same conditions in the presence of 10 μM of ionophore A 23187 and […] of calcium chloride. After 5 minutes, the incubates were placed in ice and centrifuged at 3000 g.

Each structure is given as a SMILES string. Like-named read-outs stand apart in the source and are kept apart here.

Take `CC(C(=O)O)c1cc2c(s1)C1(CCCCC1)CC2` (stereo not drawn) [Example 1, 4',5'-dihydro-α'-methyl-spiro[cyclohexane-1,6']-6H-[cyclopenta (b)thiophene]-2'-acetic acid]: the IC50 on cyclo-oxygenase (arachidonic acid 15×10^-6 M, 37° C., 30 minutes, PGE2 and PGF2 α by radio-immunoassay, read-out: CI50 (dose that inhibited the activity by 50%), for each of PGE2 and PGF2 α) turned out to be 20 µM; on 5-lipoxygenase it was 10 µM. The ED50 in experiment [1] came to 8 mg/kg.
On to `CC(C(=O)N(C)O)c1cc2c(s1)C1(CCCCC1)CC2` (stereo not drawn) [Example 4, 4',5'-dihydro-α',N-dimethyl-N-hydroxy-spiro[cyclohexane-1,6']-6H-[cyclopenta (b)thiophene]-2-acetamide], for which the IC50 at cyclo-oxygenase (table value, read-out: CI50 cyclooxygenase) was 200 µM; on 5-lipoxygenase, 0.5 µM.
